Entries after “also recorded” stand apart in the source; their conditions may differ.
Assays:
[1] = test system: TAC-induced cardiac hypertrophy; experiment: Echocardiography in mouse model of TAC (pressure overload-induced cardiac hypertrophy); type: in vivo; conditions: TAC mice, 300 μg/kg IP at days 1 and 7; compared with TAC controls
Description: (§1) All procedures involving animal use, housing, and surgeries were approved by the Stanford Institutional Animal Care and Use Committee (IACUC). Animal care and interventions were provided in accordance with the Laboratory Animal Welfare Act.
(§2) For constriction of transverse thoracic aorta (DeAlmeida et al. (2010) J. Vis. Exp. April 21(38) pii:172), mice were anesthetized using an isoflurane inhalational chamber, followed by endotracheal intubation using a 22-gauge angiocatheter (Becton, Dickinson Inc., Sandy, Utah) connected to a small animal ventilator (Harvard Apparatus, Holliston, Mass.). A left thoracotomy was performed via the fourth intercostal space, the transverse aorta was identified, and a 6.0 silk suture was placed between the innominate and left carotid arteries. The suture was tightened around a 271/2 gauge blunt needle, placed parallel to the aorta (FIG. 1B) to induce a constriction of ˜0.4 mm in diameter. In sham control mice, an identical procedure was conducted, except for the constriction of the aorta.
In vivo heart function was evaluated by echocardiography at 1 day prior to surgery (baseline) and on days 1, 7, and 14 post-surgery (FIG. 1A). […] Fractional shortening (FS), LV internal diameter at end diastole (LVIDd) and systole (LVIDs), and posterior LV wall thickness at end diastole (LVPWd) were measured. […]

[2] = test system: TAC-induced cardiac hypertrophy; experiment: Histology (Masson's trichrome) of heart sections two weeks post injury; type: in vivo, mouse; conditions: TAC mice
Description: as §1, §2
Histological analysis was performed following standard protocols for paraffin embedding. Mounted heart samples were stained for Masson's trichrome (TC, to label muscle fibers in red, collagen in blue, cytoplasm in pink, and nuclei in dark brown). A minimum of 4 sections per sample were used.

“pyroglutamyl apelin-13 [[Pyr1]-apelin-13]” was tested, and the “hypertrophic response / cardiac remodeling and dysfunction due to pressure overload” value [1] was “more modest effect; also recorded: slight inhibition of cardiac remodeling and increase in FS” and the “size of LV and extent of cardiac fibrosis (trichrome histology)” value [2] was “remarkable inhibition of the LV growth”.

Source: US20160058705A1 (priority 2014, published 2016)
